According to patent US9040502B2, “Anti-XDR-TB drug, anti-MDR-TB drug, and combination anti-tuberculosis drug” (priority 2008, dated 2015):

System: Mycobacterium tuberculosis XDR-TB (0306-0206)
Assay type: cell-based
Conditions: ratio method, concentrations as in Table 1

Molecule	Resistance or sensitivity of M. tuberculosis XDR-TB (0306-0206) to the drug
N[C@@H]1CON=C1O [CS, cycloserine]	sensitive
CC[C@@H](CO)NCCN[C@@H](CC)CO [EB, ethambutol]	resistant
NNC(=O)c1ccncc1 [INH, isonicotinic acid hydrazide]	resistant
Nc1ccc(C(=O)O)c(O)c1 [PAS, para-amino-salicylic acid]	resistant
[H]/N=C(/N)N[C@H]1[C@H](O)[C@@H](O)[C@H](O[C@@H]2O[C@@H](C)[C@](O)(C=O)[C@H]2O[C@@H]2O[C@@H](CO)[C@H](O)[C@@H](O)[C@@H]2NC)[C@@H](N/C(N)=N\[H])[C@@H]1O [SM, streptomycin]	resistant
CCc1cc(C(N)=S)ccn1 [TH, ethionamide]	resistant
enviomycin [EVM]	resistant
